From publication PMC4001772 (The Journal of General Physiology, 2014) come the findings set out here.

As a reminder, the Ki is the equilibrium dissociation constant of an inhibitor or competing ligand from its target. As usually defined, the EC50 is the concentration giving half of the maximal effect. A low value points to an effect from little substance.

Test in all cases: inside-out patch clamp of Xenopus oocytes
Holding throughout (assay type): cell-based
In general terms: In patch-clamp work, channel activity is measured electrically.

Test [1] addresses CFTR (Homo sapiens, UniProt P13569, E1371S).
In test [2] the target is T1, CFTR (Homo sapiens, UniProt P13569).
T1 sequence (P13569 whole entry): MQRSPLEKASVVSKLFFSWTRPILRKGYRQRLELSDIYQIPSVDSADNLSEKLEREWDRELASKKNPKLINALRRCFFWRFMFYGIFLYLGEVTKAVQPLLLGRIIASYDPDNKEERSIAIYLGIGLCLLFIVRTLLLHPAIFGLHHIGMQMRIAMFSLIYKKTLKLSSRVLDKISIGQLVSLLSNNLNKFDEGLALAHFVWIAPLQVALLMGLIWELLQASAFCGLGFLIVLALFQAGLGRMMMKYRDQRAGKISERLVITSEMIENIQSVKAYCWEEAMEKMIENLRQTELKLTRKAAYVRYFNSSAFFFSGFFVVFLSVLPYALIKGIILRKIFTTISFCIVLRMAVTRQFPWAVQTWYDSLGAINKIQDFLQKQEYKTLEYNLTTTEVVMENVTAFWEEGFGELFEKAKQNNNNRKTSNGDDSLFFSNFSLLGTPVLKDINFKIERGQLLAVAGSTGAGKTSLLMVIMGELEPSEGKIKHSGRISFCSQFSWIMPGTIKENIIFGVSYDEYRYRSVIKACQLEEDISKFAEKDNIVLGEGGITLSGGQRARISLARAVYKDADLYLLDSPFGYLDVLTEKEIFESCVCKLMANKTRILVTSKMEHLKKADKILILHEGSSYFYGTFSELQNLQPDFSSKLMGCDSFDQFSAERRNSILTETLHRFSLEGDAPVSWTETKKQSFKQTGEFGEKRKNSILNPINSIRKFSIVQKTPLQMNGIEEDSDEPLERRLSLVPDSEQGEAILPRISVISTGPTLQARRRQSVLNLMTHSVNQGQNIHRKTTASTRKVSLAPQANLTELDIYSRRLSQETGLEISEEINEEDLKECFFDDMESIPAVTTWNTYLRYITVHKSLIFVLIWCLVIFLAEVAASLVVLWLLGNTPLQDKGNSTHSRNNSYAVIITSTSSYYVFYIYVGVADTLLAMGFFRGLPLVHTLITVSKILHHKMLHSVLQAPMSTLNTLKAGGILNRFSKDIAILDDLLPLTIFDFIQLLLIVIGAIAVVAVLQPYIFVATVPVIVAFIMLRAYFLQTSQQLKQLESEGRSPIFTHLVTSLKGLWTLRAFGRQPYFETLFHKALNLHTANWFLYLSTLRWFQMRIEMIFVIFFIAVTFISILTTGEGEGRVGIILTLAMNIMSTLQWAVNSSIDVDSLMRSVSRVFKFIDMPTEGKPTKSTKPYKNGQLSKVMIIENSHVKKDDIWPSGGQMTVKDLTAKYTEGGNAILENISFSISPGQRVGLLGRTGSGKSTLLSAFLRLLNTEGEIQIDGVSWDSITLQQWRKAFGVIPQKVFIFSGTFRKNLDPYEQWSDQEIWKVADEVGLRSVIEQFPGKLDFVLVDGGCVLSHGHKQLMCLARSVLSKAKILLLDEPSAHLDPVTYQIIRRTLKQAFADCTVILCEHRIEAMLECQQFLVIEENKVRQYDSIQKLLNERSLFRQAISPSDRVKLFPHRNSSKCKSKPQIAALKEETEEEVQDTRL
The target of test [3] is CFTR (Homo sapiens, UniProt P13569, K1250A).
CFTR (Homo sapiens, UniProt P13569, K1250A), sequence (P13569 whole entry K1250A): as the sequence (P13569 whole entry) above, with K1250A counted along it
Test [4] concerns the target T1, CFTR. This is another data set of the same source.

CFTR (Homo sapiens, UniProt P13569, E1371S), sequence (P13569 whole entry E1371S): as the sequence (P13569 whole entry) above, with E1371S counted along it

Consider `O=S(=O)(O)CCCN1CCOCC1` [MOPS], for which the Ki is about 8000 µM on CFTR [1] and about 15000 µM at CFTR [2].

Compound `O=C(O)c1cc([N+](=O)[O-])ccc1NCCCc1ccccc1` [NPPB, 5-nitro-2-(3-phenylpropylamino)benzoate] registered a Ki on CFTR [1] of about 20 µM. The EC50 at CFTR [3] is about 100 µM; at CFTR [4], about 90 µM.
